Three molecules from paper PMC7346217, “Insight of Polyphenol Oxidase Enzyme Inhibition and Total Polyphenol Recovery from Cocoa Beans” (Antioxidants, 2020) can be followed below.

For the assay, the system named is T1, polyphenol oxidase (PPO) from cocoa beans.
T1 construct: native; isoenzyme not identified
The experiment in a line: spectrophotometric oxidation ([…] nm), Michaelis-Menten nonlinear regression. The assay is classed as biochemical, Theobroma cacao. The note with it: crude extract of non-treated beans; McIlvaine buffer pH 6.5; 35 °C; substrate 5-200 mM.

Usually Km stands for the substrate concentration at which the rate is half of its maximum. In the case of `Oc1cc(O)c2c(c1)O[C@H](c1ccc(O)c(O)c1)[C@@H](O)C2` [(+)-catechin], the Km amounted to 1450 ± 350 µM. As to `Oc1cc(O)c2c(c1)O[C@H](c1ccc(O)c(O)c1)[C@H](O)C2` [(−)-epicatechin], the Michaelis-Menten constant (Km) is 1260 ± 370 µM. For `Oc1ccccc1O` [catechol] the value was 610 ± 120 µM.
